Experimental data reported in patent US20060024337A1, “Process for dissolving lipophilic compounds in aqueous solution with amphiphilic block copolymers, and cosmetic composition” (priority 2002, published 2006).
Values after ≈ are worked out from the molar mass of the structure shown.

What was measured:
[1] = Dissolving Parsol 1789 in water with amphiphilic block copolymers (film hydration, centrifugation, HPLC assay of supernatant); type: physicochemical; details: 25 °C, thermodynamic from solid, no polymer ("natural" solubility)
Procedure: (§1) The measurement is performed by UV spectrometry or HPLC on an aqueous solution, prepared beforehand, of from 20 to 80° C. for 2 hours, followed by cooling to 25° C. The assay is performed 24 hours after this preparation on the supernatant obtained after centrifuging the suspension to remove all crystals, or on the pellet in the case of solubilization of oily molecules, the centrifugation resulting in creaming of the portion that is not encapsulated in the micelles.
The supernatant, which should not contain any crystals that may be identified using an optical microscope in polarized light, is taken up and then assayed by HPLC.
(§2) The solubility gain is calculated relative to the “natural” solubility of the lipophilic compound in water.

[2] = Dissolving DHEA in water with amphiphilic block copolymers (film hydration, centrifugation, HPLC assay of supernatant); type: physicochemical; details: 25 °C, thermodynamic from solid, no polymer ("natural" solubility)
Procedure: as §1, §2

SMILES | solubility at 24 h [1] | solubility at 24 h [2]
COc1ccc(C(=O)CC(=O)c2ccc(C(C)(C)C)cc2)cc1 [Parsol 1789, 4-(tert-butyl)-4′-methoxydibenzoylmethane] | 1 µg/mL (≈ 3.22 µM) | –
C[C@]12CC[C@H](O)CC1=CC[C@@H]1[C@@H]2CC[C@]2(C)C(=O)CC[C@@H]12 [DHEA, dehydroepiandrosterone] | – | 1 µg/mL (≈ 3.47 µM)
